This is an account of results in US7402606B2, “Derivatives of 1-(oxoaminoacetyl) pentylcarbamate as cathepsin K inhibitors for the treatment of bone loss” (SmithKline Beecham Corporation, priority 2002, dated 2008).

In general, IC50 refers to the point on the concentration scale where inhibition reaches its midpoint.

For the test, the target named is T1, human cathepsin K (Homo sapiens, UniProt P43235).
T1 construct: The proform of cathepsin K was converted to mature cathepsin K by brief exposure to pH 4; made in house; host or cells: baculovirus; Trichoplusia ni High Five cells (virus raised in Sf-9)
T1 sequence (P43235 115-329): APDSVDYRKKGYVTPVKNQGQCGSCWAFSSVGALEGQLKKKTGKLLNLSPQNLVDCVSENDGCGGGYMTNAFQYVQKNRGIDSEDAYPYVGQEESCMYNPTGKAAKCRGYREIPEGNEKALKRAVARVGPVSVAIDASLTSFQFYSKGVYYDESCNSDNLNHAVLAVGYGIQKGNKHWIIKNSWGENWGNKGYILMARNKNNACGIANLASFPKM
Description: Cathepsin K inhibition assay, human recombinant enzyme, fluorogenic substrate Cbz-Phe-Arg-AMC. In kind it is biochemical. Conditions: Table 1, human cathepsin K; read-out: h Cat K IC50. The method in brief: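 Recombinant human cathepsin K (baculovirus/insect-cell proform, activated at pH 4 with 5 mM L-cysteine) assayed with 10 μM Cbz-Phe-Arg-AMC, 10% DMSO, 30 °C.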
In the case of `CCCC[C@H](NC(=O)O[C@@H]1CN(C(=O)OCc2c(-c3c(Cl)cccc3Cl)noc2C)CC1(C)C)C(=O)C(=O)N[C@H](C)c1ccccc1` [Example 53, [3-(2,6-Dichlorophenyl)-5-methyl-4-isoxazolyl]methyl (4S)-3,3-dimethyl-4-[({[(1S)-1-(oxo{[(1R)-1-phenylethyl]amino}acetyl)pentyl]amino}carbonyl)oxy]-1-pyrrolidinecarboxylate], the IC50 lay within 1 to 10 nM.

For `CCCC[C@H](NC(=O)O[C@@H]1CN(C(=O)OCc2cccc(-c3ccccc3)c2C)CC1(C)C)C(=O)C(=O)N[C@H](C)c1ccccc1` [Example 54, (2-Methyl[1,1′-biphenyl]-3-yl)methyl (4S)-3,3-dimethyl-4-[({[(1S)-1-(oxo{[(1R)-1-phenylethyl]amino}acetyl)pentyl]amino}carbonyl)oxy]-1-pyrrolidinecarboxylate], the IC50 lay within 10 to 100 nM.

For the compound `CCCC[C@H](NC(=O)O[C@@H]1CN(C(=O)OCc2noc(-c3cccs3)n2)CC1(C)C)C(=O)C(=O)N[C@H](C)c1ccccc1` [Example 55, [5-(2-Thienyl)-1,2,4-oxadiazol-3-yl]methyl (4S)-3,3-dimethyl-4-[({[(1S)-1-(oxo{[(1R)-1-phenylethyl]amino}acetyl)pentyl]amino}carbonyl)oxy]-1-pyrrolidinecarboxylate], the IC50 was in the range of 10 to 100 nM.

Consider `CCCC[C@H](NC(=O)O[C@@H]1CN(C(=O)O[C@@H]2CCOC2)CC1(C)C)C(=O)C(=O)N[C@H](C)c1ccccc1` [Example 56, (3R)-Tetrahydro-3-furanyl (4S)-3,3-dimethyl-4-[({[(1S)-1-(oxo{[(1R)-1-phenylethyl]amino}acetyl)pentyl]amino}carbonyl)oxy]-1-pyrrolidinecarboxylate], for which the IC50 was in the range of 10 to 100 nM.

Consider `CCCC[C@H](NC(=O)O[C@@H]1CN(C(=O)Oc2ccc(-c3ccccc3)cc2)CC1(C)C)C(=O)C(=O)N[C@H](C)c1ccccc1` [Example 57, [1,1′-Biphenyl]-4-yl (4S)-3,3-dimethyl-4-[({[(1S)-1-(oxo{[(1R)-1-phenylethyl]amino}acetyl)pentyl]amino}carbonyl)oxy]-1-pyrrolidinecarboxylate], for which the IC50 fell in the range of 1 to 10 nM.

For `CCCC[C@H](NC(=O)O[C@@H]1CN(C(=O)Oc2ccc(Oc3ccccc3)cc2)CC1(C)C)C(=O)C(=O)N[C@H](C)c1ccccc1` [Example 58, 4-Phenoxyphenyl (4S)-3,3-dimethyl-4-[({[(1S)-1-(oxo{[(1R)-1-phenylethyl]amino}acetyl)pentyl]amino}carbonyl)oxy]-1-pyrrolidinecarboxylate], the IC50 fell in the range of 10 to 100 nM.

For the compound `CCCC[C@H](NC(=O)O[C@@H]1CN(C(=O)Oc2cccc(Oc3ccccc3)c2)CC1(C)C)C(=O)C(=O)N[C@H](C)c1ccccc1` [Example 59, 3-Phenoxyphenyl (4S)-3,3-dimethyl-4-[({[(1S)-1-(oxo{[(1R)-1-phenylethyl]amino}acetyl)pentyl]amino}carbonyl)oxy]-1-pyrrolidinecarboxylate], the IC50 was in the range of 10 to 100 nM.

`CCCC[C@H](NC(=O)O[C@@H]1CN(C(=O)Oc2ccc3ccccc3c2)CC1(C)C)C(=O)C(=O)N[C@H](C)c1ccccc1` [Example 60, 2-Naphthyl (4S)-3,3-dimethyl-4-[({[(1S)-1-(oxo {[(1R)-1-phenylethyl]amino}acetyl)pentyl]amino}carbonyl)oxy]-1-pyrrolidinecarboxylate]: the IC50 was 10 to 100 nM.

For `CCCC[C@H](NC(=O)O[C@@H]1CN(C(=O)Oc2ccc(-c3csnn3)cc2)CC1(C)C)C(=O)C(=O)N[C@H](C)c1ccccc1` [Example 61, 4-(1,2,3-Thiadiazol-4-yl)phenyl (4S)-3,3-dimethyl-4-[({[(1S)-1-(oxo{[(1R)-1-phenylethyl]amino}acetyl)pentyl]amino}carbonyl)oxy]-1-pyrrolidinecarboxylate], the IC50 fell in the range of 10 to 100 nM.

On to `CCCC[C@H](NC(=O)OC1CN(C(=O)Oc2ccccc2)CC1(C)C)C(=O)C(=O)N[C@H](C)c1ccccc1` (stereo partly drawn) [Example 62, Phenyl 3,3-dimethyl-4-[({[(1S)-1-(oxo{[(1R)-1-phenylethyl]amino}acetyl)pentyl]amino}carbonyl)oxy]-1-pyrrolidinecarboxylate], for which the IC50 is 10 to 100 nM.

Consider `CCCC[C@H](NC(=O)O[C@@H]1CN(C(=O)Nc2ccccc2)CC1(C)C)C(=O)C(=O)N[C@H](C)c1ccccc1` [Example 63, (3S)-1-(Anilinocarbonyl)-4,4-dimethylpyrrolidinyl (1S)-1-(oxo{[(1R)-1-phenylethyl]amino}acetyl)pentylcarbamate], for which the half-inhibitory concentration (IC50) lay in the range of 1 to 10 nM.

For `CCCC[C@H](NC(=O)O[C@@H]1CN(C(=O)NCc2ccccc2)CC1(C)C)C(=O)C(=O)N[C@H](C)c1ccccc1` [Example 64], the IC50 lay in the range of 1 to 10 nM.

As for `CCCC[C@H](NC(=O)O[C@@H]1CN(C(=O)NCCc2ccccc2)CC1(C)C)C(=O)C(=O)N[C@H](C)c1ccccc1` [Example 65, (3S)-4,4-Dimethyl-1-{[(2-phenylethyl)amino]carbonyl}pyrrolidinyl (1S)-1-(oxo{[(1R)-1-phenylethyl]amino}acetyl)pentylcarbamate], the IC50 was 1 to 10 nM.

For `CCCC[C@H](NC(=O)O[C@@H]1CN(C(=O)c2cccnc2)CC1(C)C)C(=O)C(=O)N[C@H](C)c1ccccc1` [Example 66, (3S)-4,4-Dimethyl-1-(3-pyridinylcarbonyl)pyrrolidinyl (1S)-1-(oxo{[(1R)-1-phenylethyl]amino}acetyl)pentylcarbamate], the IC50 fell in the range of 10 to 100 nM.

In the case of `CCCC[C@H](NC(=O)O[C@@H]1CN(C(=O)Nc2c(C)noc2C)CC1(C)C)C(=O)C(=O)N[C@H](C)c1ccccc1` [Example 67, (3S)-1-{[(3,5-Dimethyl-4-isoxazolyl)amino]carbonyl}-4,4-dimethylpyrrolidinyl (1S)-1-(oxo{[(1R)-1-phenylethyl]amino}acetyl)pentylcarbamate], the IC50 lay within 10 to 100 nM.

As to `CCCC[C@H](NC(=O)O[C@@H]1CN(C(=O)NC2CCCCC2)CC1(C)C)C(=O)C(=O)N[C@H](C)c1ccccc1` [Example 68, (3S)-1-[(Cyclohexylamino)carbonyl]-4,4-dimethylpyrrolidinyl (1S)-1-(oxo{[(1R)-1-phenylethyl]amino}acetyl)pentylcarbamate], the half-inhibitory concentration (IC50) was in the range of 10 to 100 nM.

As to `CCCC[C@H](NC(=O)O[C@@H]1CN(C(=O)Nc2ccc(C#N)cc2)CC1(C)C)C(=O)C(=O)N[C@H](C)c1ccccc1` [Example 69, (3S)-1-[(4-Cyanoanilino)carbonyl]-4,4-dimethylpyrrolidinyl (1S)-1-(oxo{[(1R)-1-phenylethyl]amino}acetyl)pentylcarbamate], the concentration for half-maximal inhibition (IC50) lay in the range of 10 to 100 nM.

Turning to `CCCC[C@H](NC(=O)O[C@@H]1CN(C(=O)Nc2ccc(C(F)(F)F)cc2)CC1(C)C)C(=O)C(=O)N[C@H](C)c1ccccc1` [Example 70, (3S)-4,4-Dimethyl-1-{[4-(trifluoromethyl)anilino]carbonyl}pyrrolidinyl (1S)-1-(oxo {[(1R)-1-phenylethyl]amino}acetyl)pentylcarbamate], the IC50 lay in the range of 1 to 10 nM.

Take `CCCC[C@H](NC(=O)O[C@@H]1CN(C(=O)Nc2cc(F)ccc2C)CC1(C)C)C(=O)C(=O)N[C@H](C)c1ccccc1` [Example 72, (3S)-1-[(5-Fluoro-2-methylanilino)carbonyl]-4,4-dimethylpyrrolidinyl (1S)-1-(oxo{[(1R)-1-phenylethyl]amino}acetyl)pentylcarbamate]: the IC50 was 1 to 10 nM.

Turning to `CCCC[C@H](NC(=O)O[C@@H]1CN(C(=O)N2CCOCC2)CC1(C)C)C(=O)C(=O)N[C@H](C)c1ccccc1` [Example 73, (3S)-4,4-Dimethyl-1-(4-morpholinylcarbonyl)pyrrolidinyl (1S)-1-(oxo{[(1R)-1-phenylethyl]amino}acetyl)pentylcarbamate], the IC50 lay within 10 to 100 nM.

In the case of `CCCC[C@H](NC(=O)O[C@@H]1CN(C(=O)N2CCCC2)CC1(C)C)C(=O)C(=O)N[C@H](C)c1ccccc1` [Example 74, (3S)-4,4-Dimethyl-1-(1-pyrrolidinylcarbonyl)pyrrolidinyl (1S)-1-(oxo{[(1R)-1-phenylethyl]amino}acetyl)pentylcarbamate], the IC50 is 10 to 100 nM.

`CCCC[C@H](NC(=O)O[C@@H]1CN(C(=O)NC(=O)c2ccccc2)CC1(C)C)C(=O)C(=O)N[C@H](C)c1ccccc1` [Example 75, (3S)-1-[(Benzoylamino)carbonyl]-4,4-dimethylpyrrolidinyl (1S)-1-(oxo{[(1R)-1-phenylethyl]amino}acetyl)pentylcarbamate]: the IC50 was in the range of 10 to 100 nM.

For the compound `CCCC[C@H](NC(=O)O[C@@H]1CN(C(=O)NS(=O)(=O)c2ccc(C)cc2)CC1(C)C)C(=O)C(=O)N[C@H](C)c1ccccc1` [Example 76, (3S)-4,4-Dimethyl-1-({[(4-methylphenyl)sulfonyl]amino}carbonyl)pyrrolidinyl (1S)-1-(oxo{[(1R)-1-phenylethyl]amino}acetyl)pentylcarbamate], the IC50 lay in the range of 100 to 1000 nM.

`CCCC[C@H](NC(=O)O[C@@H]1CN(S(=O)(=O)c2ccccc2)CC1(C)C)C(=O)C(=O)N[C@H](C)c1ccccc1` [Example 77, (3S)-4,4-Dimethyl-1-(phenylsulfonyl)pyrrolidinyl (1S)-1-(oxo{[(1R)-1-phenylethyl]amino}acetyl)pentylcarbamate]: the IC50 was 1 to 10 nM.

In the case of `CCCC[C@H](NC(=O)O[C@@H]1CN(S(=O)(=O)Cc2ccccc2)CC1(C)C)C(=O)C(=O)N[C@H](C)c1ccccc1` [Example 78, (3S)-1-(Benzylsulfonyl)-4,4-dimethylpyrrolidinyl (1S)-1-(oxo{[(1R)-1-phenylethyl]amino}acetyl)pentylcarbamate], the IC50 lay within 10 to 100 nM.
